BindingDB's records for doi:10.1016/S0960-894X(97)00031-0 (1997)

Target: Human immunodeficiency virus type 1 protease (Human immunodeficiency virus 1, UniProt Q72874)
Assay: ChEBML_157558
Description: Inhibition of HIV-1 protease.

Row | Ki [nM] | SMILES
1 | 1.9 | O=c1oc2c(c(O)c1C(c1cccc(CS(=O)(=O)c3ccccn3)c1)C1CC1)CCCCCC2 (configuration not stated) [3-{Cyclopropyl-[3-(pyridine-2-sulfonylmethyl)-phenyl]-methyl}-4-hydroxy-5,6,7,8,9,10-hexahydro-cycloocta[b]pyran-2-one]
2 | 1.9 | N#Cc1ccc(S(=O)(=O)Cc2cccc(C(c3c(O)c4c(oc3=O)CCCCCC4)C3CC3)c2)cc1 (configuration not stated) [4-{3-[Cyclopropyl-(4-hydroxy-2-oxo-5,6,7,8,9,10-hexahydro-2H-cycloocta[b]pyran-3-yl)-methyl]-phenylmethanesulfonyl}-benzonitrile]
